# What was measured:
# Settings in all cases: incubation time: 72 h
# BT-474 [1] = test: normalised response (% of control), CellTox Green; higher = less cell death (100 = DMSO, 0 = benzethonium chloride kill control)
# How it was run: (§1)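 Breast cancer cell lines, seeded at 20 µl suspension per well, were incubated for 72 h in 384-well plates containing compound at 5 concentrations. These concentrations rose in 10-fold steps over a 10,000-fold range set for each compound. CellTox Green fluorescence (485/520 nm) was read, then CellTiter-Glo luminescence after 10 min at room temperature, and each plate was normalised to 0.1 % DMSO (100) and a positive kill control (0). Values are normalised signals, each at one concentration.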
# BT-549 [2] = test: as above
# How it was run: as §1
# CAL-120 [3] = test: as above
# How it was run: as §1
# CAL-148 [4] = test: as above
# How it was run: as §1
# CAL-51 [5] = test: as above
# How it was run: as §1
# CAL-85-1 [6] = test: as above
# How it was run: as §1
# DU-4475 [7] = test: as above
# How it was run: as §1
# HCC1143 [8] = test: as above
# How it was run: as §1
# HCC1599 [9] = test: as above
# How it was run: as §1
# HCC1937 [10] = test: as above
# How it was run: as §1
# HDQ-P1 [11] = test: as above
# How it was run: as §1
# Hs578T [12] = test: as above
# How it was run: as §1
# MCF-10A [13] = test: as above
# How it was run: as §1
# MDA-MB-231 [14] = test: as above
# How it was run: as §1
# MDA-MB-436 [15] = test: as above
# How it was run: as §1
# MDA-MB-453 [16] = test: as above
# How it was run: as §1
# MDA-MB-468 [17] = test: as above
# How it was run: as §1
# MFM-223 [18] = test: as above
# How it was run: as §1
# BT-474 [19] = test: normalised response (% of control), CellTiter-Glo; higher = more viable cells (100 = DMSO, 0 = benzethonium chloride kill control)
# How it was run: as §1
# BT-549 [20] = test: as above
# How it was run: as §1
# CAL-120 [21] = test: as above
# How it was run: as §1
# CAL-148 [22] = test: as above
# How it was run: as §1
# CAL-51 [23] = test: as above
# How it was run: as §1
# CAL-85-1 [24] = test: as above
# How it was run: as §1
# DU-4475 [25] = test: as above
# How it was run: as §1
# HCC1143 [26] = test: as above
# How it was run: as §1
# HCC1599 [27] = test: as above
# How it was run: as §1
# HCC1937 [28] = test: as above
# How it was run: as §1
# HDQ-P1 [29] = test: as above
# How it was run: as §1
# Hs578T [30] = test: as above
# How it was run: as §1
# MCF-10A [31] = test: as above
# How it was run: as §1
# MDA-MB-231 [32] = test: as above
# How it was run: as §1
# MDA-MB-436 [33] = test: as above
# How it was run: as §1
# MDA-MB-453 [34] = test: as above
# How it was run: as §1
# MDA-MB-468 [35] = test: as above
# How it was run: as §1
# MFM-223 [36] = test: as above
# How it was run: as §1
# SK-BR-3 = test: as above
# How it was run: as §1
Structure (SMILES),normalised response (BT-474 [1]),normalised response (BT-549 [2]),normalised response (CAL-120 [3]),normalised response (CAL-148 [4]),normalised response (CAL-51 [5]),normalised response (CAL-85-1 [6]),normalised response (DU-4475 [7]),normalised response (HCC1143 [8]),normalised response (HCC1599 [9]),normalised response (HCC1937 [10]),normalised response (HDQ-P1 [11]),normalised response (Hs578T [12]),normalised response (MCF-10A [13]),normalised response (MDA-MB-231 [14]),normalised response (MDA-MB-436 [15]),normalised response (MDA-MB-453 [16]),normalised response (MDA-MB-468 [17]),normalised response (MFM-223 [18]),normalised response (BT-474 [19]),normalised response (BT-549 [20]),normalised response (CAL-120 [21]),normalised response (CAL-148 [22]),normalised response (CAL-51 [23]),normalised response (CAL-85-1 [24]),normalised response (DU-4475 [25]),normalised response (HCC1143 [26]),normalised response (HCC1599 [27]),normalised response (HCC1937 [28]),normalised response (HDQ-P1 [29]),normalised response (Hs578T [30]),normalised response (MCF-10A [31]),normalised response (MDA-MB-231 [32]),normalised response (MDA-MB-436 [33]),normalised response (MDA-MB-453 [34]),normalised response (MDA-MB-468 [35]),normalised response (MFM-223 [36]),normalised response (SK-BR-3)
CCc1cnn2c(NCc3ccc[n+]([O-])c3)cc(N3CCCC[C@H]3CCO)nc12 [Dinaciclib] (100 nM),71%,53.8%,87.7%,50.9%,50.7%,21.7%,96.3%,88.7%,71.3%,87.2%,63.2%,38%,65%,-7.86%,105%,100%,-14.9%,30.3%,20.7%,12.7%,36.6%,52.9%,10.2%,8.18%,18.6%,18.8%,10.5%,27.6%,22.3%,12.9%,28.7%,5.94%,15.8%,15.5%,9.07%,14.8%,4.18%
CN1CCc2c(c3ccccc3n2Cc2ccc(C(=O)NO)cc2)C1 [Tubastatin A] (1000 nM),99.2%,99.6%,102%,104%,91.3%,111%,105%,–,93.7%,98%,94.3%,81.9%,110%,98.7%,106%,105%,131%,101%,91.7%,101%,93.3%,103%,53.5%,94.7%,96.5%,94.3%,104%,92.9%,87.9%,101%,112%,91.7%,97.5%,92.4%,90.8%,96.9%,100%
CCCc1cc(C)[nH]c(=O)c1CNC(=O)c1cc(-c2ccnc(N3CCN(C)CC3)c2)cc2c1cnn2C(C)C [GSK343] (1000 nM),97.9%,107%,96.1%,98.2%,82.5%,98%,94.6%,98.9%,91.5%,121%,72.7%,73.9%,107%,106%,79.6%,97.6%,183%,–,103%,92.9%,95%,77.9%,73.8%,101%,89.5%,95.3%,95.9%,103%,103%,101%,96.4%,97.3%,99.1%,80.4%,87%,90.7%,83.6%
CC[C@H](CC#N)OC(=O)N[C@@H](C)c1cccc(NC(=O)Nc2ccc(-c3cnco3)c(OC)c2)c1 [AVN944] (1000 nM),86.3%,127%,99.9%,-21.7%,63.5%,97%,88.2%,56.6%,85%,76.8%,98.8%,32%,112%,81.8%,74%,90.3%,131%,44.7%,58.7%,36.3%,59.9%,34.3%,24.1%,40.8%,29.2%,42.3%,48.1%,52.7%,46.1%,44.4%,58%,53.5%,42.7%,84.4%,37.5%,71.3%,51.3%
Cn1cc(C[C@@H](N)C(=O)O)c2ccccc21 [1-methyl-D-tryptophan] (500 nM),99.3%,–,99.3%,91.4%,95.5%,98.8%,101%,94.1%,85.2%,–,107%,66.7%,113%,95.6%,88.9%,103%,143%,84.3%,97.6%,105%,105%,89.7%,81.3%,100%,94.4%,94.8%,115%,99.3%,107%,115%,104%,96.6%,101%,105%,101%,92.7%,92.7%
COc1cc2c(cc1-c1c(C)noc1C)ncc1[nH]c(=O)n([C@H](C)c3ccccn3)c12 [I-BET151] (1000 nM),97.2%,93.6%,91.8%,–,89.2%,83.8%,94.7%,105%,97.9%,42.4%,–,79.2%,109%,123%,99.7%,106%,117%,101%,77.8%,57.5%,71.2%,101%,87.4%,57.4%,82.9%,87.3%,97.3%,79.5%,82.9%,52.6%,74%,85.7%,94.7%,68.4%,86.3%,72%,82%
